According to PubChem BioAssay (NCI):
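Compound exposure: 48 hours, 5 concentrations, 96-well plates. Definition used: TGI = concentration required for complete inhibition of growth.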

Columns and labels:
Assay in all cases: NCI tumour cell line growth inhibition, 48 h
[1] = test system: HS 578T breast
[2] = test system: 786-0 renal
[3] = test system: A498 renal
[4] = test system: CCRF-CEM leukemia
[5] = test system: DU-145 prostate
[6] = test system: OVCAR-5 ovarian
[7] = test system: MCF7 breast
[8] = test system: SK-MEL-28 melanoma
[9] = test system: EKVX NSCLC
[10] = test system: SNB-75 CNS
[11] = test system: OVCAR-3 ovarian
[12] = test system: K-562 leukemia
[13] = test system: UO-31 renal
[14] = test system: NCI-H23 lung
[15] = test system: BT-549 breast
[16] = test system: SF-295 CNS
[17] = test system: SN12C renal
[18] = test system: UACC-257 melanoma

Compound	TGI [1] [µM]	TGI [2] [µM]	TGI [3] [µM]	TGI [4] [µM]	TGI [5] [µM]	TGI [6] [µM]	TGI [7] [µM]	TGI [8] [µM]	TGI [9] [µM]	TGI [10] [µM]	TGI [11] [µM]	TGI [12] [µM]	TGI [13] [µM]	TGI [14] [µM]	TGI [15] [µM]	TGI [16] [µM]	TGI [17] [µM]	TGI [18] [µM]
COC(=O)c1c(CC(Cc2ccc3c(c2)CCCC3)C(=O)O)ccc2c1CCCC2 (stereo not given)	79.4	> 100	76.3	> 100	> 100	> 100	84.1	> 100	68.6	> 100	34.3	> 100	62.3	> 100	> 100	> 100	> 100	33.3
C[C@H]1C2Cc3cc(O)ccc3[C@@]1(C)CCN2CCc1ccc(N)cc1	> 100	30.7	> 100	69	> 100	> 100	28.4	34.4	> 100	> 100	47	52.6	> 100	> 100	> 100	53.7	> 100	36.5
C[C@@H](C[C@H]1OC(C)(C)O[C@@H]1C(C)(C)O)[C@H]1CC=C2[C@]3(C)[C@H](O)C[C@H]4C(C)(C)[C@H](O)CC[C@]4(C)[C@H]3CC[C@]21C	16.6	18.5	18.5	14.1	28.7	17.1	12.8	18.6	21.9	19.8	15.4	13.9	23.7	26.1	22.4	18.2	6.51	20.4
COc1c2c(nc3ccccc13)-c1cc(C(CC(=O)OC(C)(C)C)C(=O)OC(C)C)c(CO)c(=O)n1C2 (stereo not given)	> 100	> 100	> 100	> 100	> 100	> 100	19.3	> 100	> 100	> 100	> 100	> 100	> 89.5	> 100	> 100	> 100	> 100	> 100
N#CC1=C(N)N(/N=C/c2ccccc2)C(c2ccccc2)C1(C#N)C#N (stereo not given)	66.7	16.1	29.3	6.12	30.6	39.4	58.6	9.91	38.3	31.6	17.4	> 26	29.7	33.5	29.4	39.5	31	23.4
Nc1nccc(NCC2(CO)CC(OCc3ccccc3)C2)n1 (stereo not given)	> 100	> 100	> 100	> 100	> 100	> 100	> 100	> 100	> 100	> 100	> 100	> 100	> 100	> 100	> 100	> 100	> 100	> 100
O=C(Cn1cc(Br)c(=O)[nH]c1=O)c1ccc(-c2ccccc2)cc1	> 100	> 100	> 100	> 20.2	> 30.7	> 27.5	> 100	> 19.9	> 100	6.51	> 100	> 17.3	> 100	> 27.5	> 23.8	> 100	> 100	> 100
N#Cc1c(Cl)c2cccnc2n2c1nc1ccccc12	10.5	3.27	31.1	4.02	4.03	44.8	> 25.1	9.75	14.9	15.4	9.6	6.05	3.33	4.28	9.28	35.9	3.7	7.5
Cc1ccc(O)c(C2=CC3=NNC(=O)C3C(c3cccc(Cl)c3)C2)c1 (stereo not given)	> 100	> 100	> 100	> 100	> 100	> 100	47.1	> 100	> 100	76.2	84.1	> 100	> 100	> 100	78.7	> 100	> 100	> 100
O=c1[nH]nc(Cc2ccccc2)n1/N=C/c1ccco1	> 100	> 100	> 100	> 100	> 100	> 100	> 100	> 100	> 100	> 100	> 100	> 100	> 100	> 100	> 100	> 100	> 100	> 100
COc1ccc(-c2c(-c3ccccc3)c(C)c3ccccn23)cc1	> 100	> 100	> 100	> 100	> 100	> 100	> 100	> 100	> 100	> 100	> 100	> 100	> 100	> 100	> 100	> 100	> 100	> 100
O=C1/C(=C\c2ccc(Br)cc2)CCCc2ccccc21	49	27.8	45.6	53	49.4	> 100	> 100	40.9	39	52.7	65.1	> 100	27.8	36.4	55.9	52.9	32.1	39.6
C=C1C[C@@H](O)[C@@H](Br)C(C)(C)[C@@]12C=CC(=O)CC2	> 100	> 100	> 100	> 100	> 100	13.7	> 100	> 100	> 51.8	> 100	> 100	> 100	> 100	> 100	> 100	> 100	> 100	> 100
O=c1[nH]nc(-c2ccccc2)n1/N=C/c1cccc([N+](=O)[O-])c1	> 100	> 100	> 100	> 100	> 100	> 100	> 100	> 100	> 100	> 100	> 100	> 100	> 100	> 100	> 100	> 100	> 100	> 100
CC1(C)CO[P@@](=S)(c2ccccn2)O[C@@H]1c1ccccc1	> 100	> 100	> 100	> 100	> 100	> 100	> 100	> 100	> 100	> 100	> 100	> 100	> 100	> 100	> 100	> 100	> 100	> 100
CC(=O)O[C@H]1CC[C@@]2(C)C(=CC[C@@H]3[C@@H]2CC[C@]2(C)c4c(n[nH]c4C)C[C@@H]32)C1	48	35.1	41	25.1	27.2	31.1	24.2	45.2	34.7	25.3	26.2	> 100	33.8	34.5	32.1	37.2	45.5	33.2
O=[N+]([O-])C(/C(Cl)=C(\Cl)Br)=C(/Cl)SCc1ccccc1	50.7	4.06	21.2	6.25	25.7	26.2	11.2	5.98	14.5	13.5	8.83	4.12	5.73	14.9	7.38	35.9	11.3	22.1
Cc1ccc(-c2c(-c3ccccc3)[nH]c(C)c2C(=O)ONC(=O)c2ccccc2)cc1	5.39	12.6	25.5	> 27.1	3.82	32.3	17.3	27.1	> 50.3	7.21	17.4	6.72	3.86	17.4	14.1	4.17	8.36	27.3
CCc1ccc2[nH]c(O)c(C3=Nc4ccccc4C3=O)c2c1	> 100	19	18.2	> 100	> 100	> 100	10.9	> 100	24.2	91.4	51.8	> 100	37.9	> 100	72.8	61.2	> 100	> 100
N#Cc1c2ccc([N+](=O)[O-])cc2c(=O)n2c1[nH]c1ccc(C(F)(F)F)cc12	> 100	> 100	> 48.8	> 100	> 100	> 100	> 100	> 85.4	> 100	> 100	83.4	45.7	56.9	65.3	> 100	66.1	> 100	> 100
